US11759454B2, “Diazole lactams” (CHEMOCENTRYX, INC., priority 2012, dated 2023)

What follows are molecules tested on inflammatory cells recruited to the inflamed synovial fluid of the knee joints (assay: Rabbit model of destructive joint inflammation (rabbit LPS study)). Details: female New Zealand rabbits, intra-articular LPS 10 ng, oral dosing in 1% methocel 2 h before and 4 h after LPS, lavage at 16 h.
Format: in vivo
Description: a) Rabbit Model of Destructive Joint Inflammation
A rabbit LPS study was conducted essentially as described in Podolin, et al. J. Immunol. 169(11):6435-6444 (2002). Female New Zealand rabbits (approximately 2 kilograms) were treated intra-articularly in both knees with LPS (10 ng). The compound of interest, for example 1.016, (formulated in 1% methocel) or vehicle (1% methocel) was dosed orally at a 5 ml/kg dose volume at two times (2 hours before the intra-articular LP S injection and 4 hours after the intra-articular LP S injection). Sixteen hours after the LP S injection, knees were lavaged and cells counts were performed. Beneficial effects of treatment were determined by reduction in the number of inflammatory cells recruited to the inflamed synovial fluid of the knee joints.

SMILES	reduction in the number of inflammatory cells recruited to the inflamed synovial fluid of the knee joints
CC(C)c1c(N2CCC(n3cnc(C(F)(F)F)c3)C2=O)cnn1-c1ccc(F)cc1 (stereo not drawn) [Compound 1.016]	significant reduction in recruited inflammatory cells

What follows are molecules tested against T1, CCR1 (Homo sapiens, UniProt P32246) (assay: Chemotaxis assay (inhibition of CCR1 mediated migration)). Details: chemotaxis of THP-1 or monocyte cells toward CCR1 chemokine ligand (MIP-1α, CCL15/leukotactin); read-out: Avg Mig IC50.
T1 construct: host or cells: THP-1 cells (or freshly isolated monocytes)
T1 sequence (P32246 1-355): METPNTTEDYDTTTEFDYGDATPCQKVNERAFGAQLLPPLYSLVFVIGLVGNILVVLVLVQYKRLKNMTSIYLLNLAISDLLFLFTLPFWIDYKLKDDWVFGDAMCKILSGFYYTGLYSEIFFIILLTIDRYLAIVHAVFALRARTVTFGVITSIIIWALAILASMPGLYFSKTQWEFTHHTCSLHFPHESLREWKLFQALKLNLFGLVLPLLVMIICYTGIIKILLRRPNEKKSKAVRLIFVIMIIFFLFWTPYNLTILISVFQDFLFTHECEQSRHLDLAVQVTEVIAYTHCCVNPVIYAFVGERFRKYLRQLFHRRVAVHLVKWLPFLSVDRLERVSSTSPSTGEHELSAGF
Format: cell-based
Description: THP-1 cells were obtained from ATCC (TIB-202) and cultured as a suspension in RPMI-1640 medium supplemented with 2 mM L-glutamine, 1.5 g/L sodium bicarbonate, 4.5 g/L glucose, 10 mM HEPES, 1 mM sodium pyruvate, 0.05% 2-mercaptoethanol and 10% FBS. Cells were grown under 5% CO2/95% air, 100% humidity at 37° C. and subcultured twice weekly at 1:5 (cells were cultured at a density range of 2×10^5 to 2×10^6 cells/mL) and harvested at 1×10^6 cells/mL. THP-1 cells express CCR1 and can be used in CCR1 binding and functional assays.
Chemotaxis assays were performed using 5 μm pore polycarbonate, polyvinylpyrrolidone-coated filters in 96-well chemotaxis chambers (Neuroprobe; Gaithersburg, Md.) using chemotaxis buffer (Hank's balanced salt solution (HBSS) and 1% FBS). CCR1 chemokine ligands (i.e., MIP-1α, CCL15/Leukotactin; R&D Systems; Minneapolis, Minn.) are use to evaluate compound mediated inhibition of CCR1 mediated migration. Other chemokines (i.e., SDF-1α; R&D Systems; Minneapolis, Minn.) are used as specificity controls. The lower chamber was loaded with 29 μl of chemokine (i.e., 0.1 nM CCL15/Leukotactin) and varying amounts of compound; the top chamber contained 100,000 THP-1 or monocyte cells in 20 μl. The chambers were incubated 1-2 hours at 37° C., and the number of cells in the lower chamber quantified either by direct cell counts in five high powered fields per well or by the CyQuant assay (Molecular Probes), a fluorescent dye method that measures nucleic acid content and microscopic observation.
One of the primary functions of chemokines is their ability to mediate the migration of chemokine receptor-expressing cells, such as white blood cells. To confirm that a compound of interest inhibited not only CCR1 specific binding and signaling (at least as determined by calcium mobilization assays), but also CCR1 mediated migration, a chemotaxis assay was employed. THP-1 myelomonocytic leukemia cells, which resemble monocytes, as wells as freshly isolated monocytes, were used as targets for chemoattraction by CCR1 chemokine ligands (i.e., MIP-1α, CCL15/leukotactin). Cells were placed in the top compartment of a microwell migration chamber, while MIP-1α (or other potent CCR1 chemokine ligand) and increasing concentrations of a compound of interest was loaded in the lower chamber. […] To ascertain a compound of interest's affinity for CCR1 as well as to confirm its ability to inhibit CCR1 mediated cell migration, inhibitory activity was titered over a 1×10^−10 to 1×10^−4 M range of compound concentrations in this chemotaxis assay. In this assay, the amount of compound was varied; while cell number and chemokine agonist concentrations were held constant. After the chemotaxis chambers were incubated 1-2 hours at 37° C., the responding cells in the lower chamber were quantified by labeling with the CyQuant assay (Molecular Probes), a fluorescent dye method that measures nucleic acid content, and by measuring with a Spectrafluor Plus (Tecan). The computer program Prism from GraphPad, Inc. (San Diego, Calif.) was used to calculate IC50 values. IC50 values are those compound concentrations required to inhibit the number of cells responding to a CCR1 agonist by 50%.

SMILES	IC50
Cc1c(Cl)c(C(F)(F)F)nn1C1CCN(c2cnn(-c3ccc(F)cc3)c2)C1=O (stereo not drawn) [Compound 1.040]	100 to 20000 nM
CCCc1c(N2CCC(n3nc(C(F)(F)F)c(Cl)c3C)C2=O)cnn1-c1ccc(F)cc1 (stereo not drawn) [Compound 1.007]	100 to 20000 nM
Cc1c(Cl)c(C(F)(F)F)nn1C1CCN(c2cnn(-c3ccc(F)cc3)c2C(C)(C)C)C1=O (stereo not drawn) [Compound 1.020]	100 to 20000 nM
CC(C)c1c(N2CCC(n3nc(-c4ncc[nH]4)c4c(N)ncnc43)C2=O)cnn1-c1ccc(F)cc1 (stereo not drawn) [Compound 1.014]	100 to 20000 nM
Cc1nn(C2CCN(c3cnn(-c4ccc(F)cc4)c3C(C)C)C2=O)c(C(C)(C)O)c1Cl (stereo not drawn) [Compound 1.017]	100 to 20000 nM
Cc1nc(C(F)(F)F)cn1C1CCN(c2cnn(-c3ccc(F)cc3)c2)C1=O (stereo not drawn) [Compound 1.039]	100 to 20000 nM
Cc1nc(C(F)(F)F)cn1C1(C)CCN(c2cnn(-c3ccc(Cl)cc3)c2C(C)C)C1=O (stereo not drawn) [Compound 1.003]	100 to 20000 nM
CCCc1c(N2CCC(n3nc(C(F)(F)F)c(Cl)c3C)C2=O)cnn1-c1cccc(F)c1 (stereo not drawn) [Compound 1.019]	100 to 20000 nM
Cc1nc(C(F)(F)F)cn1C1CC(C)N(c2cnn(-c3ccc(F)cc3)c2C(C)C)C1=O (stereo not drawn) [Compound 1.005]	100 to 20000 nM
Cc1c(Cl)c(C(F)(F)F)nn1C1CCN(c2cnn(-c3cccc(F)c3)c2-c2ccoc2)C1=O (stereo not drawn) [Compound 1.027]	100 to 20000 nM
Cc1cc(C(F)(F)F)nn1C1CCN(c2cnn(-c3ccc(F)cc3)c2)C1=O (stereo not drawn) [Compound 1.038]	100 to 20000 nM
Cc1c(Cl)c(C(F)(F)F)nn1C1CCCN(c2cnn(-c3ccc(F)cc3)c2)C1=O (stereo not drawn) [Compound 1.037]	100 to 20000 nM
Cc1nc(C(F)(F)F)cn1C1CCN(c2cnn(-c3ccc(F)cc3)c2N(C)C)C1=O (stereo not drawn) [Compound 1.001]	100 to 20000 nM
Cc1c(N2CCCCC(n3nc(C(F)(F)F)c(Cl)c3C)C2=O)cnn1-c1ccc(F)cc1 (stereo not drawn) [Compound 1.029]	100 to 20000 nM
Cc1c(N2CCC(n3nc(C(F)(F)F)c(Cl)c3C)C2=O)cnn1-c1ccc(F)cc1 (stereo not drawn) [Compound 1.035]	100 to 20000 nM
Cc1nc(C(F)(F)F)cn1C1CCN(c2cnn(-c3ccc(F)cc3)c2C)C1=O (stereo not drawn) [Compound 1.033]	100 to 20000 nM
Cc1c(Cl)c(C(F)(F)F)nn1C1CCN(c2cnn(-c3cccc(F)c3)c2I)C1=O (stereo not drawn) [Compound 1.023]	100 to 20000 nM
Cc1nc(C(F)(F)F)cn1C1CCN(c2cnn(-c3ccc(Cl)cc3)c2C(F)(F)F)C1=O (stereo not drawn) [Compound 1.043]	100 to 20000 nM

Further lines, results first:

IC50	SMILES
100 to 20000 nM	Cc1c(N2CCCC(n3nc(C(F)(F)F)c(Cl)c3C)C2=O)cnn1-c1ccc(F)cc1 (stereo not drawn) [Compound 1.030]
100 to 20000 nM	COc1cc(-n2ncc(N3CC[C@H](n4cc(C(F)(F)F)nc4C)C3=O)c2C(C)C)ccc1Cl [Compound 1.041]
≤ 100 nM	Cc1nc(C(F)(F)F)cn1[C@H]1CCN(c2nnn(-c3ccc(Cl)cc3)c2C(C)C)C1=O [Compound 1.042]
100 to 20000 nM	CC(C)c1c(N2CCC(n3cnc(C(F)(F)F)c3)C2=O)cnn1-c1ccc(F)cc1 (stereo not drawn) [Compound 1.016]
100 to 20000 nM	Cc1nc(C(F)(F)F)cn1C1CCCN(c2cnn(-c3ccc(F)cc3)c2C)C1=O (stereo not drawn) [Compound 1.036]
≤ 100 nM	CCC(C)c1c(N2CCC(n3nc(C(F)(F)F)c(Cl)c3C)C2=O)cnn1-c1ccc(F)cc1 (stereo not drawn) [Compound 1.010]
100 to 20000 nM	CC(C)c1c(N2CCC(n3ccc(C(F)(F)F)n3)C2=O)cnn1-c1ccc(F)cc1 (stereo not drawn) [Compound 1.013]
≤ 100 nM	Cc1nc(C(F)(F)F)cn1[C@H]1CCN(c2cnn(-c3ccc(Cl)cc3)c2C(C)C)C1=O [Compound 1.045]
100 to 20000 nM	Cc1c(Cl)c(C(C)(C)O)nn1C1CCN(c2cnn(-c3ccc(F)cc3)c2C(C)C)C1=O (stereo not drawn) [Compound 1.018]
100 to 20000 nM	CC(C)c1c(N2CCC(n3nc(-c4ncc[nH]4)c4cccnc43)C2=O)cnn1-c1ccc(F)cc1 (stereo not drawn) [Compound 1.021]
≤ 100 nM	Cc1nc(C(F)(F)F)cn1C1CCN(c2cnn(-c3ccc(Cl)cc3)c2C2CCC2)C1=O (stereo not drawn) [Compound 1.044]
100 to 20000 nM	C/C=C(\C)c1c(N2CCC(n3nc(C(F)(F)F)c(Cl)c3C)C2=O)cnn1-c1ccc(F)cc1 (stereo not drawn) [Compound 1.012]
≤ 100 nM	Cc1cc(C(F)(F)F)nn1C1CCN(c2cnn(-c3ccc(F)cc3)c2C(C)C)C1=O (stereo not drawn) [Compound 1.022]
100 to 20000 nM	Cc1c(N2CCC(n3nc(C(F)(F)F)nc3C)C2=O)cnn1-c1ccc(F)cc1 (stereo not drawn) [Compound 1.034]
100 to 20000 nM	Cc1c(Cl)c(C(F)(F)F)nn1C1CCN(c2cnn(-c3cccc(F)c3)c2C2CC2)C1=O (stereo not drawn) [Compound 1.024]
100 to 20000 nM	Cc1nc(C(F)(F)F)cn1C1CCCN(c2cnn(-c3ccc(F)cc3)c2C)C1=O (stereo not drawn) [Compound 1.031]
≤ 100 nM	CCc1nc(C(F)(F)F)cn1C1CCN(c2cnn(-c3ccc(Cl)cc3)c2C(C)C)C1=O (stereo not drawn) [Compound 1.004]
≤ 100 nM	Cc1c(Cl)c(C(F)(F)F)nn1C1CCN(c2cnn(-c3ccc(Cl)cc3)c2C(C)C)C1=O (stereo not drawn) [Compound 1.011]
100 to 20000 nM	Cc1c(Cl)c(-c2ncc[nH]2)nn1C1CCN(c2cnn(-c3ccc(F)cc3)c2C(C)C)C1=O (stereo not drawn) [Compound 1.015]
100 to 20000 nM	Cc1c(Cl)c(C(F)(F)F)nn1C1CCN(c2cnn(-c3ccc(F)cc3)c2-c2ccccc2)C1=O (stereo not drawn) [Compound 1.026]
≤ 100 nM	Cc1nc(C(F)(F)F)cn1C1CCN(c2cnn(-c3ccc(F)cc3)c2C(C)C)C1=O (stereo not drawn) [Compound 1.025]
≤ 100 nM	Cc1c(Cl)c(C(F)(F)F)nn1C1CCN(c2cnn(-c3ccc(F)cc3)c2C(C)C)C1=O (stereo not drawn) [Compound 1.028]
≤ 100 nM	Cc1nc(C(F)(F)F)cn1C1CCN(c2cnn(-c3ccc(Cl)cc3)c2C(C)C)C1=O (stereo not drawn) [Compound 1.008]
≤ 100 nM	CCc1c(N2CCC(n3nc(C(F)(F)F)c(Cl)c3C)C2=O)cnn1-c1ccc(F)cc1 (stereo not drawn) [Compound 1.032]
≤ 100 nM	Cc1c(Cl)c(C(F)(F)F)nn1C1CC(C)N(c2cnn(-c3ccc(F)cc3)c2C(C)C)C1=O (stereo not drawn) [Compound 1.009]
≤ 100 nM	Cc1nc(C(F)(F)F)cn1C1CCN(c2cnn(-c3ccc(F)cc3)c2OC(C)C)C1=O (stereo not drawn) [Compound 1.002]
≤ 100 nM	Cc1c(Cl)c(C(F)(F)F)nn1C1CCN(c2cnn(-c3ccc(F)cc3)c2C2CC2)C1=O (stereo not drawn) [Compound 1.006]

Each molecule was assayed on CCR1 bearing neutrophils (assay: Murine model of inflammation (thioglycolate induced peritoneal inflammation)). Details: 3% thioglycolate into the peritoneum.
Format: in vivo
Description: Murine Model of Inflammation
A method of inducing peritoneal inflammation by the introduction of 3% thioglycolate into the peritoneum is well know in the art. Following the introduction of thioglycolate, a rapid influx of immune cells to the site, primarily CCR1 bearing neutrophils, results in local inflammation at 24 hours. A peritoneal exudate can be sampled, and the cell number and composition can be assessed to determine the anti-inflammatory properties of a compound of interest administered before, during or after the thioglycolate induction.

SMILES	neutrophil number in peritoneal exudate	total cell number in peritoneal exudate
Cc1nc(C(F)(F)F)cn1[C@H]1CCN(c2nnn(-c3ccc(Cl)cc3)c2C(C)C)C1=O [Compound 1.042]	dramatic decrease	dramatic decrease
